16 compounds from ChEMBL document CHEMBL1129866, “S1 heterocyclic thrombin inhibitors” (Bioorg Med Chem Lett, 1997) can be followed below.

A value given as a limit tells only on which side of the number the result lay.

The target in one assay is Coagulation factor X (Homo sapiens, UniProt P00742). The assay can be described thus: Tested for selectivity against Coagulation factor X.
Another assay concerns the target Serine protease 1 (Homo sapiens, UniProt P07477). The assay is described as follows: Tested for selectivity against trypsin.
The next assay has as its target Prothrombin (Homo sapiens, UniProt P00734). The assay can be described thus: Tested for the binding affinity against thrombin.

Chain of Coagulation factor X (P00742 41-179 limits assumed): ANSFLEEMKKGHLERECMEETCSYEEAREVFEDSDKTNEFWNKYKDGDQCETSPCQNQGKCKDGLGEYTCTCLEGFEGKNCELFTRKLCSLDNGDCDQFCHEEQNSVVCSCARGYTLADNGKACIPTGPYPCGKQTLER
Chain of Coagulation factor X (P00742 235-488 limits assumed): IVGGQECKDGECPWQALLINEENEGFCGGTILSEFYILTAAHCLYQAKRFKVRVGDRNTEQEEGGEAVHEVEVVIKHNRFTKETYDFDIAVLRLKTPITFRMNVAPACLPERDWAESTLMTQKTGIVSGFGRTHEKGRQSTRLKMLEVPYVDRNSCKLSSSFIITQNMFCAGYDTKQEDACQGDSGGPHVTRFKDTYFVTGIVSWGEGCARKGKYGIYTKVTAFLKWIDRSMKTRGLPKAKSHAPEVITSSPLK
Chain of Serine protease 1 (P07477 whole entry): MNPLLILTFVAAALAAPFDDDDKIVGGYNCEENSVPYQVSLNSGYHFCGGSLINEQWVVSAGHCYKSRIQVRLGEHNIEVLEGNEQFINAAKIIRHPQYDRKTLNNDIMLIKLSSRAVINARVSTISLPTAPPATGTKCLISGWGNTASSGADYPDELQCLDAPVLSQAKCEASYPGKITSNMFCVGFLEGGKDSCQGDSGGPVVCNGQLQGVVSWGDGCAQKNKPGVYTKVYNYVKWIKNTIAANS

Usually Ki stands for the dissociation constant of the complex between target and ligand, obtained from inhibition or displacement. High values mean weaker binding, low ones tighter binding. Turning to `CC(=O)N[C@H](Cc1ccccc1)C(=O)N1CCC[C@H]1C(=O)N[C@@H](CCCn1ccnc1N)B1O[C@@H]2CC3CC(C3(C)C)[C@]2(C)O1` (stereo partly specified), the Ki at Coagulation factor X is > 6 µM; on Serine protease 1 it was 0.02 µM; on Prothrombin, 0.0017 µM.

`CC(=O)N[C@H](Cc1ccccc1)C(=O)N1CCC[C@H]1C(=O)N[C@@H](CCCNc1cc(Cl)nc(N)n1)B1O[C@@H]2CC3CC(C3(C)C)[C@]2(C)O1` (stereo partly specified): the Ki on Coagulation factor X was > 6 µM; on Serine protease 1, > 1.2 µM; at Prothrombin it was 0.043 µM.

The compound `CC(=O)N[C@H](Cc1ccccc1)C(=O)N1CCC[C@H]1C(=O)N[C@@H](CCCNc1ccnc(N)n1)B1O[C@@H]2CC3CC(C3(C)C)[C@]2(C)O1` (stereo partly specified) had a Ki at Prothrombin of 0.15 µM.

For the compound `CCCCS(=O)(=O)N[C@H](Cc1ccccc1)C(=O)N1CCC[C@H]1C(=O)N[C@@H](CCCNc1cc(Cl)nc(N)n1)B1O[C@@H]2CC3CC(C3(C)C)[C@]2(C)O1` (stereo partly specified), the Ki was > 6 µM at Coagulation factor X, 0.214 µM on Serine protease 1 and 0.0021 µM on Prothrombin.

Turning to `CC(=O)N[C@H](Cc1ccccc1)C(=O)N1CCC[C@H]1C(=O)N[C@@H](CCCSc1ncccn1)B1O[C@@H]2CC3CC(C3(C)C)[C@]2(C)O1` (stereo partly specified), the Ki was > 1.2 µM on Serine protease 1 and 2 µM on Prothrombin.

`CCCCS(=O)(=O)N[C@H](Cc1ccccc1)C(=O)N1CCC[C@H]1C(=O)N[C@@H](CCCSc1ncccn1)B1O[C@@H]2CC3CC(C3(C)C)[C@]2(C)O1` (stereo partly specified) displayed a Ki on Prothrombin of 0.0088 µM.

On to `CCCCS(=O)(=O)N[C@H](Cc1ccccc1)C(=O)N1CCC[C@H]1C(=O)N[C@@H](CCCn1ccnc1N)B1O[C@@H]2CC3CC(C3(C)C)[C@]2(C)O1` (stereo partly specified), for which the Ki on Coagulation factor X was 0.97 µM; on Serine protease 1 it was 0.04 µM; at Prothrombin, 0.0032 µM.

Take `CC(=O)N[C@H](Cc1ccccc1)C(=O)N1CCC[C@H]1C(=O)N[C@@H](CCCn1ncnc1[N+](=O)[O-])B1O[C@@H]2CC3CC(C3(C)C)[C@]2(C)O1` (stereo partly specified): the Ki on Coagulation factor X is > 6 µM; on Serine protease 1 it was > 1.2 µM; at Prothrombin, 0.199 µM.

In the case of `CC(=O)N[C@H](Cc1ccccc1)C(=O)N1CCC[C@H]1C(=O)N[C@@H](CCCn1ncnc1N)B1O[C@@H]2CC3CC(C3(C)C)[C@]2(C)O1` (stereo partly specified), the Ki is > 6 µM on Coagulation factor X, > 1.2 µM at Serine protease 1 and 0.507 µM on Prothrombin.

Turning to `CC(=O)N[C@H](Cc1ccccc1)C(=O)N1CCC[C@H]1C(=O)N[C@@H](CCCn1ccnc1)B1O[C@@H]2CC3CC(C3(C)C)[C@]2(C)O1` (stereo partly specified), the Ki came to 6 µM at Coagulation factor X, 0.027 µM at Serine protease 1 and 0.067 µM on Prothrombin.

As to `CCCCS(=O)(=O)N[C@H](Cc1ccccc1)C(=O)N1CCC[C@H]1C(=O)N[C@@H](CCCn1ccnc1[N+](=O)[O-])B1O[C@@H]2CC3CC(C3(C)C)[C@]2(C)O1` (stereo partly specified), the Ki on Coagulation factor X is 6 µM; on Serine protease 1, > 1.2 µM; on Prothrombin it was 0.015 µM.

Regarding `CC(=O)N[C@H](Cc1ccccc1)C(=O)N1CCC[C@H]1C(=O)N[C@@H](CCCn1ccnc1[N+](=O)[O-])B1O[C@@H]2CC3CC(C3(C)C)[C@]2(C)O1` (stereo partly specified), the Ki was > 6 µM on Coagulation factor X, > 1.2 µM on Serine protease 1 and 0.65 µM at Prothrombin.

On Coagulation factor X, `CC(=O)N[C@H](Cc1ccccc1)C(=O)N1CCC[C@H]1C(=O)N[C@@H](CCCN=C(N)N)B(O)O` came in with a Ki of 0.009 µM.

As for `CC(=O)N[C@H](Cc1ccccc1)C(=O)N1CCC[C@H]1C(=O)N[C@@H](CCCn1nnnc1N)B1O[C@@H]2CC3CC(C3(C)C)[C@]2(C)O1` (stereo partly specified), the values for the Ki at Coagulation factor X, at Serine protease 1 and at Prothrombin were 6 µM, > 1.2 µM and 0.35 µM, respectively.

Regarding `CC(=O)N[C@H](Cc1ccccc1)C(=O)N1CCC[C@H]1C(=O)N[C@@H](CCCNc1ncccn1)B1O[C@@H]2CC3CC(C3(C)C)[C@]2(C)O1` (stereo partly specified), the values for the Ki on Coagulation factor X, at Serine protease 1 and on Prothrombin were > 6 µM, > 1.2 µM and 0.6 µM, respectively.

`CC(=O)N[C@H](Cc1ccccc1)C(=O)N1CCC[C@H]1C(=O)N[C@@H](CCCNc1ccccn1)B1O[C@@H]2CC3CC(C3(C)C)[C@]2(C)O1` (stereo partly specified): the Ki at Coagulation factor X is > 6 µM; on Serine protease 1, > 1.2 µM; at Prothrombin, 0.23 µM.
